# According to patent US9328122B2, “7-substituted Hanfangichin B derivative, and preparation method and use thereof” (HANGZHOU BENSHENG PHARMACEUTICAL CO., LTD., priority 2012, dated 2016):
# Experiments:
# tumor = experiment: Antitumor activity compared with fangchinoline, overall statement; assay type: cell-based; conditions: tumor type not specified
# [1] = tested on: NB4 (acute promyelocytic leukemia) cells; experiment: MTT cell growth inhibition, leukemia cells; assay type: cell-based; conditions: Homo sapiens, NB4, 72 h, MTT
# Description: (§1) Leukemia cell lines: leukemia cell lines: K562adr (drug-resistant, chronic myeloid leukemia, CML), NB4 (acute promyelocytic leukemia, AML), Kasumi-1 (acute myeloid leukemia M2 type, AML-M2), Jurkat (acute lymphoblastic leukemia, ALL), all of which were donated by Cancer Research Institute of Zhejiang University, China; and H9 (acute lymphoblastic leukemia, ALL), which was purchased from China Center for Type Culture Collection.
# (§2) Reagents: The standard sample of fangchinoline (FAN) was purchased from Ci Yuan Biotechnology Co., Ltd., Shaanxi, China; and the 7-substituted fangchinoline derivatives according to the present invention.
# (§3) 6000 well-growing leukemia cells were obtained and inoculated into wells of a 96-well cell culture plate. The culture medium was a RPMI-1640 cell culture medium containing 10% fetal bovine serum. After adding the 7-substituted fangchinoline derivatives of different concentrations the next day and mixing uniformly, the plate was placed in a carbon dioxide cell incubator (5% CO2) at 37° C. and incubating for 72 hours. Then the viable cell concentration was determined by the MTT method.
# [2] = tested on: K562/ADR (K562adr, drug-resistant chronic myeloid leukemia) cells; experiment: MTT cell growth inhibition, leukemia cells; assay type: cell-based; conditions: Homo sapiens, K562/ADR, 72 h, MTT
# Description: as §1, §2, §3
# [3] = tested on: H9 (acute lymphoblastic leukemia) cells; experiment: MTT cell growth inhibition, leukemia cells; assay type: cell-based, human; conditions: Homo sapiens, H9, 72 h, MTT
# Description: as §1, §2, §3
# [4] = tested on: Kasumi-1 (acute myeloid leukemia M2 type) cells; experiment: MTT cell growth inhibition, leukemia cells; assay type: cell-based, human; conditions: Homo sapiens, Kasumi-1, 72 h, MTT
# Description: as §1, §2, §3
# [5] = tested on: Jurkat (acute lymphoblastic leukemia) cells; experiment: MTT cell growth inhibition, leukemia cells; assay type: cell-based, human; conditions: Homo sapiens, Jurkat, 72 h, MTT
# Description: as §1, §2, §3
# [6] = tested on: MG-63 (osteosarcoma) cells; experiment: MTT cell growth inhibition, solid tumor cells; assay type: cell-based; conditions: Homo sapiens, MG-63, 72 h, MTT
# Description: (§4) Hep-2 (laryngeal carcinoma), A549 (human lung cancer), CaES-17 (esophageal cancer cell), PC-3 (prostate cancer), CNE (nasopharyngeal carcinoma cell) and SK-OV-3 (ovarian cancer cell), all of which were purchased from China Center For Type Culture Collection; RKO (human colon adenocarcinoma cell), MGC-803 (human gastric cancer cell), MG-63 (osteosarcoma), and U87-MG (malignant glioma cell), all of which were purchased from Fuxiang Bio-tech Co. Ltd., Shanghai, China; PANC-1 (pancreatic cancer), Becap37 (human breast cancer cell), Hela (human cervical cancer cell) and Hep G2 (human liver cancer cell), all of which were donated by Cancer Research Institute of Zhejiang University, China.
# as §3, with “human solid tumor” for “leukemia”, “DMEM High Glucose” for “a RPMI-1640”, “serum. The plate was placed in a carbon dioxide cell incubator (5% CO2) at 37° C. and incubated for 24 hours.” for “serum.”, “added with” for “adding the”, “concentration” for “concentrations the next day”, “incubated” for “incubating”
# [7] = tested on: U87-MG (malignant glioma) cells; experiment: MTT cell growth inhibition, solid tumor cells; assay type: cell-based; conditions: Homo sapiens, U-87 MG, U87-MG, 72 h, MTT
# Description: as §4
# as §3, with “human solid tumor” for “leukemia”, “DMEM High Glucose” for “a RPMI-1640”, “serum. The plate was placed in a carbon dioxide cell incubator (5% CO2) at 37° C. and incubated for 24 hours.” for “serum.”, “added with” for “adding the”, “concentration” for “concentrations the next day”, “incubated” for “incubating”
# [8] = tested on: RKO (human colon adenocarcinoma) cells; experiment: MTT cell growth inhibition, solid tumor cells; assay type: cell-based; conditions: Homo sapiens, RKO, 72 h, MTT
# Description: as §4
# as §3, with “human solid tumor” for “leukemia”, “DMEM High Glucose” for “a RPMI-1640”, “serum. The plate was placed in a carbon dioxide cell incubator (5% CO2) at 37° C. and incubated for 24 hours.” for “serum.”, “added with” for “adding the”, “concentration” for “concentrations the next day”, “incubated” for “incubating”
# [9] = tested on: A549 (human lung cancer) cells; experiment: MTT cell growth inhibition, solid tumor cells; assay type: cell-based; conditions: Homo sapiens, A549, 72 h, MTT
# Description: as §4
# as §3, with “human solid tumor” for “leukemia”, “DMEM High Glucose” for “a RPMI-1640”, “serum. The plate was placed in a carbon dioxide cell incubator (5% CO2) at 37° C. and incubated for 24 hours.” for “serum.”, “added with” for “adding the”, “concentration” for “concentrations the next day”, “incubated” for “incubating”
# [10] = tested on: Hela (human cervical cancer) cells; experiment: MTT cell growth inhibition, solid tumor cells; assay type: cell-based; conditions: Homo sapiens, Hela, 72 h, MTT
# Description: as §4
# as §3, with “human solid tumor” for “leukemia”, “DMEM High Glucose” for “a RPMI-1640”, “serum. The plate was placed in a carbon dioxide cell incubator (5% CO2) at 37° C. and incubated for 24 hours.” for “serum.”, “added with” for “adding the”, “concentration” for “concentrations the next day”, “incubated” for “incubating”
# [11] = tested on: MGC-803 (human gastric cancer) cells; experiment: MTT cell growth inhibition, solid tumor cells; assay type: cell-based; conditions: MGC-803, 72 h, MTT
# Description: as §4
# as §3, with “human solid tumor” for “leukemia”, “DMEM High Glucose” for “a RPMI-1640”, “serum. The plate was placed in a carbon dioxide cell incubator (5% CO2) at 37° C. and incubated for 24 hours.” for “serum.”, “added with” for “adding the”, “concentration” for “concentrations the next day”, “incubated” for “incubating”
# [12] = tested on: Hep-2 (laryngeal carcinoma) cells; experiment: MTT cell growth inhibition, solid tumor cells; assay type: cell-based; conditions: Homo sapiens, Hep-2, 72 h, MTT
# Description: as §4
# as §3, with “human solid tumor” for “leukemia”, “DMEM High Glucose” for “a RPMI-1640”, “serum. The plate was placed in a carbon dioxide cell incubator (5% CO2) at 37° C. and incubated for 24 hours.” for “serum.”, “added with” for “adding the”, “concentration” for “concentrations the next day”, “incubated” for “incubating”
# [13] = tested on: Hep G2 (human liver cancer) cells; experiment: MTT cell growth inhibition, solid tumor cells; assay type: cell-based; conditions: Homo sapiens, HepG2, Hep G2, 72 h, MTT
# Description: as §4
# as §3, with “human solid tumor” for “leukemia”, “DMEM High Glucose” for “a RPMI-1640”, “serum. The plate was placed in a carbon dioxide cell incubator (5% CO2) at 37° C. and incubated for 24 hours.” for “serum.”, “added with” for “adding the”, “concentration” for “concentrations the next day”, “incubated” for “incubating”
# [14] = tested on: Becap-37 (human breast cancer) cells; experiment: MTT cell growth inhibition, solid tumor cells; assay type: cell-based; conditions: Homo sapiens, Becap-37, 72 h, MTT
# Description: as §4
# as §3, with “human solid tumor” for “leukemia”, “DMEM High Glucose” for “a RPMI-1640”, “serum. The plate was placed in a carbon dioxide cell incubator (5% CO2) at 37° C. and incubated for 24 hours.” for “serum.”, “added with” for “adding the”, “concentration” for “concentrations the next day”, “incubated” for “incubating”
# [15] = tested on: CNE (nasopharyngeal carcinoma) cells; experiment: MTT cell growth inhibition, solid tumor cells; assay type: cell-based, human; conditions: Homo sapiens, CNE, 72 h, MTT
# Description: as §4
# as §3, with “human solid tumor” for “leukemia”, “DMEM High Glucose” for “a RPMI-1640”, “serum. The plate was placed in a carbon dioxide cell incubator (5% CO2) at 37° C. and incubated for 24 hours.” for “serum.”, “added with” for “adding the”, “concentration” for “concentrations the next day”, “incubated” for “incubating”
# [16] = tested on: PANC-1 (pancreatic cancer) cells; experiment: MTT cell growth inhibition, solid tumor cells; assay type: cell-based, human; conditions: Homo sapiens, PANC-1, 72 h, MTT
# Description: as §4
# as §3, with “human solid tumor” for “leukemia”, “DMEM High Glucose” for “a RPMI-1640”, “serum. The plate was placed in a carbon dioxide cell incubator (5% CO2) at 37° C. and incubated for 24 hours.” for “serum.”, “added with” for “adding the”, “concentration” for “concentrations the next day”, “incubated” for “incubating”
# [17] = tested on: CaEs-17 (esophageal cancer) cells; experiment: MTT cell growth inhibition, solid tumor cells; assay type: cell-based, human; conditions: Homo sapiens, CaEs17, CaEs-17, 72 h, MTT
# Description: as §4
# as §3, with “human solid tumor” for “leukemia”, “DMEM High Glucose” for “a RPMI-1640”, “serum. The plate was placed in a carbon dioxide cell incubator (5% CO2) at 37° C. and incubated for 24 hours.” for “serum.”, “added with” for “adding the”, “concentration” for “concentrations the next day”, “incubated” for “incubating”
# [18] = tested on: SK-OV-3 (ovarian cancer) cells; experiment: MTT cell growth inhibition, solid tumor cells; assay type: cell-based, human; conditions: Homo sapiens, SK-OV-3, 72 h, MTT
# Description: as §4
# as §3, with “human solid tumor” for “leukemia”, “DMEM High Glucose” for “a RPMI-1640”, “serum. The plate was placed in a carbon dioxide cell incubator (5% CO2) at 37° C. and incubated for 24 hours.” for “serum.”, “added with” for “adding the”, “concentration” for “concentrations the next day”, “incubated” for “incubating”
# [19] = tested on: PC-3 (prostate cancer) cells; experiment: MTT cell growth inhibition, solid tumor cells; assay type: cell-based, human; conditions: Homo sapiens, PC-3, 72 h, MTT
# Description: as §4
# as §3, with “human solid tumor” for “leukemia”, “DMEM High Glucose” for “a RPMI-1640”, “serum. The plate was placed in a carbon dioxide cell incubator (5% CO2) at 37° C. and incubated for 24 hours.” for “serum.”, “added with” for “adding the”, “concentration” for “concentrations the next day”, “incubated” for “incubating”
smiles,measurement,setting,value
COc1ccc2cc1Oc1ccc(cc1)C[C@H]1c3cc(c(OC)cc3CCN1C)Oc1c(OS(=O)(=O)c3ccc(C)cc3)c(OC)cc3c1[C@H](C2)N(C)CC3 [BS-FC-102],antitumor activity compared with that of fangchinoline,tumor,significantly superior
same,IC50,[1]; read-out: IC50,0.38 µg/mL
same,IC90,[1]; read-out: IC90,0.94 µg/mL
same,IC50,[2]; read-out: IC50,0.4 µg/mL
same,IC90,[2]; read-out: IC90,3.03 µg/mL
same,IC50,[3]; read-out: IC50,2.4 µg/mL
same,IC90,[3]; read-out: IC90,6.4 µg/mL
same,IC50,[4]; read-out: IC50,1.93 µg/mL
same,IC90,[4]; read-out: IC90,4.32 µg/mL
same,IC50,[5]; read-out: IC50,0.72 µg/mL
same,IC90,[5]; read-out: IC90,1.97 µg/mL
same,IC50,[6]; read-out: IC50,3.18 µg/mL
same,IC90,[6]; read-out: IC90,4.83 µg/mL
same,IC50,[7]; read-out: IC50,1.79 µg/mL
same,IC90,[7]; read-out: IC90,5.39 µg/mL
same,IC50,[8]; read-out: IC50,1.44 µg/mL
same,IC90,[8]; read-out: IC90,2.33 µg/mL
same,IC50,[9]; read-out: IC50,2.41 µg/mL
same,IC90,[9]; read-out: IC90,6.55 µg/mL
same,IC50,[10]; read-out: IC50,1.44 µg/mL
same,IC90,[10]; read-out: IC90,3.39 µg/mL
same,IC50,[11]; read-out: IC50,1.71 µg/mL
same,IC90,[11]; read-out: IC90,4.95 µg/mL
same,IC50,[12]; read-out: IC50,3.99 µg/mL
same,IC90,[12]; read-out: IC90,11.1 µg/mL
same,IC50,[13]; read-out: IC50,1.56 µg/mL
same,IC90,[13]; read-out: IC90,3.94 µg/mL
same,IC50,[14]; read-out: IC50,2.49 µg/mL
same,IC90,[14]; read-out: IC90,4 µg/mL
same,IC50,[15]; read-out: IC50,3.5 µg/mL
same,IC90,[15]; read-out: IC90,6.9 µg/mL
same,IC50,[16]; read-out: IC50,3.16 µg/mL
same,IC90,[16]; read-out: IC90,6.75 µg/mL
same,IC50,[17]; read-out: IC50,2.47 µg/mL
same,IC90,[17]; read-out: IC90,7.91 µg/mL
same,IC50,[18]; read-out: IC50,1.92 µg/mL
same,IC90,[18]; read-out: IC90,8.07 µg/mL
same,IC50,[19]; read-out: IC50,3.17 µg/mL
same,IC90,[19]; read-out: IC90,5.85 µg/mL
